Source: PubChem BioAssay AID1963960 (Molecular Pharmacology Branch, DTP, NCI, 2024)

Tested on: MDA-MB-468 spheroids with HUVEC/MSC, viability
Assay: Anticancer human tumor MDA-MB-468 cell line growth inhibition [PI3K];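 note: spheroids exposed to agents for seven days before readout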;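 for viability, T/C: 100% = DMSO vehicle control viability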
Details: for IC50: curve of first compound; for viability, T/C: stronger effect = lower value
How it was run: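 Tumor cells were combined with HUVEC and MSCs into spheroids, then dosed with PI3K-inhibitor combinations over half-log ranges capped near clinical Cmax or 10 microM.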

## CC(C)NCC(C(=O)N1CCN(c2ncnc3c2C(C)CC3O)CC1)c1ccc(Cl)cc1 (configuration not stated) + Cc1nc(NC(=O)N2CCCC2C(N)=O)sc1-c1ccnc(C(C)(C)C(F)(F)F)c1
Second compound 0.0316 µM
  IC50: 0.973 µM
Second compound 0.1 µM
  IC50: 1.2 µM
Second compound 0.316 µM
  IC50: 0.674 µM
Second compound 1 µM
  IC50: 0.424 µM
Second compound 3.16 µM
  IC50: 0.211 µM
Second compound 10 µM
  IC50: < 0.0316 µM
Second compound 0.0316 µM, first compound 0.0316 µM
  viability, T/C: 76.9%
Second compound 0.0316 µM, first compound 0.1 µM
  viability, T/C: 92.2%
Second compound 0.0316 µM, first compound 0.316 µM
  viability, T/C: 60.9%
Second compound 0.0316 µM, first compound 1 µM
  viability, T/C: 50.9%
Second compound 0.0316 µM, first compound 3.16 µM
  viability, T/C: 35.1%
Second compound 0.0316 µM, first compound 10 µM
  viability, T/C: 23.2%
Second compound 0.1 µM, first compound 0.0316 µM
  viability, T/C: 84.8%
Second compound 0.1 µM, first compound 0.1 µM
  viability, T/C: 83.5%
Second compound 0.1 µM, first compound 0.316 µM
  viability, T/C: 68%
Second compound 0.1 µM, first compound 1 µM
  viability, T/C: 53.4%
Second compound 0.1 µM, first compound 3.16 µM
  viability, T/C: 34.2%
Second compound 0.1 µM, first compound 10 µM
  viability, T/C: 18.4%
Second compound 0.316 µM, first compound 0.0316 µM
  viability, T/C: 84.6%
Second compound 0.316 µM, first compound 0.1 µM
  viability, T/C: 71.8%
Second compound 0.316 µM, first compound 0.316 µM
  viability, T/C: 61%
Second compound 0.316 µM, first compound 1 µM
  viability, T/C: 46.9%
Second compound 0.316 µM, first compound 3.16 µM
  viability, T/C: 26.7%
Second compound 0.316 µM, first compound 10 µM
  viability, T/C: 19.5%
Second compound 1 µM, first compound 0.0316 µM
  viability, T/C: 95.8%
Second compound 1 µM, first compound 0.1 µM
  viability, T/C: 66.7%
Second compound 1 µM, first compound 0.316 µM
  viability, T/C: 56.9%
Second compound 1 µM, first compound 1 µM
  viability, T/C: 41.9%
Second compound 1 µM, first compound 3.16 µM
  viability, T/C: 23.2%
Second compound 1 µM, first compound 10 µM
  viability, T/C: 18%
Second compound 3.16 µM, first compound 0.0316 µM
  viability, T/C: 62.9%
Second compound 3.16 µM, first compound 0.1 µM
  viability, T/C: 61%
Second compound 3.16 µM, first compound 0.316 µM
  viability, T/C: 42.5%
Second compound 3.16 µM, first compound 1 µM
  viability, T/C: 33%
Second compound 3.16 µM, first compound 3.16 µM
  viability, T/C: 19.3%
Second compound 3.16 µM, first compound 10 µM
  viability, T/C: 14.8%
Second compound 10 µM, first compound 0.0316 µM
  viability, T/C: 32.1%
Second compound 10 µM, first compound 0.1 µM
  viability, T/C: 28.8%
Second compound 10 µM, first compound 0.316 µM
  viability, T/C: 22%
Second compound 10 µM, first compound 1 µM
  viability, T/C: 19.1%
Second compound 10 µM, first compound 3.16 µM
  viability, T/C: 9.63%
Second compound 10 µM, first compound 10 µM
  viability, T/C: 6.41%
